System: SUM149PT spheroids with HUVEC/MSC, viability
Assay: Anticancer human tumor SUM149PT cell line growth inhibition [GQUAD];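 note: spheroids exposed to drugs for seven days before readout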;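 for viability, T/C: percent viability relative to DMSO vehicle control taken as 100%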
Conditions: for IC50: curve of first compound; for viability, T/C: stronger effect = lower value
Procedure, shortened: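 Viability of tumor cells grown as complex spheroids with endothelial and stromal cells, exposed to drug combinations. Top concentration at or near clinical Cmax (else 10 microM), diluted in half-log increments.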

[1] = second compound 0.0316 µM, first compound 0.0316 µM
[2] = second compound 0.0316 µM, first compound 0.1 µM
[3] = second compound 0.0316 µM, first compound 0.316 µM
[4] = second compound 0.0316 µM, first compound 1 µM
[5] = second compound 0.0316 µM, first compound 3.16 µM
[6] = second compound 0.0316 µM, first compound 10 µM
[7] = second compound 0.1 µM, first compound 0.0316 µM
[8] = second compound 0.1 µM, first compound 0.1 µM
[9] = second compound 0.1 µM, first compound 0.316 µM
[10] = second compound 0.1 µM, first compound 1 µM
[11] = second compound 0.1 µM, first compound 3.16 µM
[12] = second compound 0.1 µM, first compound 10 µM
[13] = second compound 0.316 µM, first compound 0.0316 µM
[14] = second compound 0.316 µM, first compound 0.1 µM
[15] = second compound 0.316 µM, first compound 0.316 µM
[16] = second compound 0.316 µM, first compound 1 µM
[17] = second compound 0.316 µM, first compound 3.16 µM
[18] = second compound 0.316 µM, first compound 10 µM
[19] = second compound 1 µM, first compound 0.0316 µM
[20] = second compound 1 µM, first compound 0.1 µM
[21] = second compound 1 µM, first compound 0.316 µM
[22] = second compound 1 µM, first compound 1 µM
[23] = second compound 1 µM, first compound 3.16 µM
[24] = second compound 1 µM, first compound 10 µM
[25] = second compound 3.16 µM, first compound 0.0316 µM
[26] = second compound 3.16 µM, first compound 0.1 µM
[27] = second compound 3.16 µM, first compound 0.316 µM
[28] = second compound 3.16 µM, first compound 1 µM
[29] = second compound 3.16 µM, first compound 3.16 µM
[30] = second compound 3.16 µM, first compound 10 µM
[31] = second compound 10 µM, first compound 0.0316 µM
[32] = second compound 10 µM, first compound 0.1 µM
[33] = second compound 10 µM, first compound 0.316 µM
[34] = second compound 10 µM, first compound 1 µM
[35] = second compound 10 µM, first compound 3.16 µM
[36] = second compound 10 µM, first compound 10 µM

Structure (SMILES): COc1cccc2c1C(=O)c1c(O)c3c(c(O)c1C2=O)CC(O)(C(=O)CO)CC3OC1CC(N)C(O)C(C)O1 (stereo unspecified) + Cc1cnc(CNC(=O)c2c(=O)c3ccc(N4CCCN(C)CC4)nc3n3c2sc2ccccc23)cn1
- IC50 (second compound 0.0316 µM): 112 nM
- IC50 (second compound 0.1 µM): 97.9 nM
- IC50 (second compound 0.316 µM): 75.9 nM
- IC50 (second compound 1 µM): < 31.6 nM
- IC50 (second compound 3.16 µM): < 31.6 nM
- IC50 (second compound 10 µM): < 31.6 nM
- viability, T/C [1]: 66.9%
- viability, T/C [2]: 48.3%
- viability, T/C [3]: 36.2%
- viability, T/C [4]: 13.1%
- viability, T/C [5]: 1.37%
- viability, T/C [6]: 2.54%
- viability, T/C [7]: 57.7%
- viability, T/C [8]: 47.1%
- viability, T/C [9]: 36.3%
- viability, T/C [10]: 15.2%
- viability, T/C [11]: 1.96%
- viability, T/C [12]: 1.69%
- viability, T/C [13]: 57.3%
- viability, T/C [14]: 45.9%
- viability, T/C [15]: 34.1%
- viability, T/C [16]: 16.2%
- viability, T/C [17]: 2.74%
- viability, T/C [18]: 3.01%
- viability, T/C [19]: 44.2%
- viability, T/C [20]: 43.7%
- viability, T/C [21]: 30.1%
- viability, T/C [22]: 15.9%
- viability, T/C [23]: 0.7%
- viability, T/C [24]: 1.88%
- viability, T/C [25]: 36.5%
- viability, T/C [26]: 35.7%
- viability, T/C [27]: 28.9%
- viability, T/C [28]: 13%
- viability, T/C [29]: 1.22%
- viability, T/C [30]: 1.18%
- viability, T/C [31]: 0.13%
- viability, T/C [32]: 1.99%
- viability, T/C [33]: 15.3%
- viability, T/C [34]: 0.37%
- viability, T/C [35]: 0.4%
- viability, T/C [36]: 1.84%

Structure (SMILES): O=C(NO)c1cnc(N2CCN(S(=O)(=O)c3ccc4ccccc4c3)CC2)nc1 + Cc1cnc(CNC(=O)c2c(=O)c3ccc(N4CCCN(C)CC4)nc3n3c2sc2ccccc23)cn1
- IC50 (second compound 0.0316 µM): 124 nM
- IC50 (second compound 0.1 µM): 184 nM
- IC50 (second compound 0.316 µM): 121 nM
- IC50 (second compound 1 µM): < 31.6 nM
- IC50 (second compound 3.16 µM): < 31.6 nM
- IC50 (second compound 10 µM): < 31.6 nM
- viability, T/C [1]: 90.1%
- viability, T/C [2]: 47.7%
- viability, T/C [3]: 42.7%
- viability, T/C [4]: 0.16%
- viability, T/C [5]: 0.95%
- viability, T/C [6]: 3.31%
- viability, T/C [7]: 65.5%
- viability, T/C [8]: 52.9%
- viability, T/C [9]: 41.9%
- viability, T/C [10]: 0.15%
- viability, T/C [11]: 0.63%
- viability, T/C [12]: 2.26%
- viability, T/C [13]: 51.9%
- viability, T/C [14]: 54%
- viability, T/C [15]: 35.9%
- viability, T/C [16]: 2.48%
- viability, T/C [17]: 0.95%
- viability, T/C [18]: 0.63%
- viability, T/C [19]: 48.3%
- viability, T/C [20]: 45.7%
- viability, T/C [21]: 34%
- viability, T/C [22]: 1.85%
- viability, T/C [23]: 1.22%
- viability, T/C [24]: 0.11%
- viability, T/C [25]: 39%
- viability, T/C [26]: 37.8%
- viability, T/C [27]: 27.7%
- viability, T/C [28]: 0.11%
- viability, T/C [29]: 0.1%
- viability, T/C [30]: 0.32%
- viability, T/C [31]: 0.2%
- viability, T/C [32]: 2.04%
- viability, T/C [33]: 1.16%
- viability, T/C [34]: 0.97%
- viability, T/C [35]: 0.39%
- viability, T/C [36]: 2.62%

Structure (SMILES): O=c1[nH]cc(F)c(=O)[nH]1 + CN(C)c1ccc(Nc2c3ccc(NC(=O)CCN4CCCC4)cc3nc3cc(NC(=O)CCN4CCCC4)ccc23)cc1
- IC50 (second compound 0.0316 µM): 8990 nM
- IC50 (second compound 0.1 µM): > 10000 nM
- IC50 (second compound 0.316 µM): 8350 nM
- IC50 (second compound 1 µM): 8640 nM
- IC50 (second compound 3.16 µM): 6640 nM
- IC50 (second compound 10 µM): 4530 nM
- viability, T/C [1]: 105%
- viability, T/C [2]: 93.2%
- viability, T/C [3]: 99.2%
- viability, T/C [4]: 98.8%
- viability, T/C [5]: 63.5%
- viability, T/C [6]: 48.6%
- viability, T/C [7]: 100%
- viability, T/C [8]: 92%
- viability, T/C [9]: 94.4%
- viability, T/C [10]: 99.3%
- viability, T/C [11]: 61.5%
- viability, T/C [12]: 57.3%
- viability, T/C [13]: 86.5%
- viability, T/C [14]: 93.3%
- viability, T/C [15]: 86.5%
- viability, T/C [16]: 89.5%
- viability, T/C [17]: 70%
- viability, T/C [18]: 46.2%
- viability, T/C [19]: 83.5%
- viability, T/C [20]: 91.6%
- viability, T/C [21]: 94.8%
- viability, T/C [22]: 99.4%
- viability, T/C [23]: 68.8%
- viability, T/C [24]: 47.2%
- viability, T/C [25]: 81.5%
- viability, T/C [26]: 80%
- viability, T/C [27]: 82.8%
- viability, T/C [28]: 92.5%
- viability, T/C [29]: 60%
- viability, T/C [30]: 44.5%
- viability, T/C [31]: 80.6%
- viability, T/C [32]: 80.9%
- viability, T/C [33]: 91.2%
- viability, T/C [34]: 94%
- viability, T/C [35]: 52.5%
- viability, T/C [36]: 44.3%

Source: PubChem BioAssay AID2060484 (Molecular Pharmacology Branch, DTP, NCI, 2025)
